We go through 7 molecules from patent US20060189576A1, “Substituted vitamin d analogues and their therapeutic uses” (priority 2003, published 2006).

Like-named read-outs stand apart in the source and are kept apart here. Marks after values point to notes of the source that are not given here. Some results are limits rather than exact numbers.

The test system of data set [1] is HL-60 cells. As to the kind of experiment: HL-60 cell differentiation (NBT reduction assay). The format is cell-based. The following applies: for IN VITRO STUDIES HL 60: potency to differentiate HL 60 cells, percentage activity vs 1α,25(OH)2D3 (=100%). As for the experimental part: To evaluate the effect on cell differentiation HL-60 cells were seeded at 4×10^4 cells/ml in 25 cm^2 Falcon tissue chambers using RPMI 1640 medium supplemented with 20% FCS and gentamycin (50 μg/ml) in a final volume of 5 ml. Cultures were maintained at 37° C. in a humidified atmosphere of 5% CO2 in air. […] After 4 days of culture, the dishes were shaken to lose adherent cells. Cells were washed twice in RPMI, counted and assayed for differentiation markers (NBT reduction assay). Superoxide production was measured as NBT reducing activity as described previously (Ostrem V. K et al. Proc Natl Acad Sci USA 84: 2610-2614, 1987). HL-60 cells at 1×10^6/ml were mixed with an equal volume of freshly prepared solution of phorbol 12-myristate 13-acetate (200 ng/ml) and […] and incubated for 30 min at 37° C. The percentage of cells containing black formazan deposits was determined using a hemacytometer.

For data set [2], the target named is T1, hDBP (Homo sapiens, UniProt P02774).
T1 sequence (P02774 17-474): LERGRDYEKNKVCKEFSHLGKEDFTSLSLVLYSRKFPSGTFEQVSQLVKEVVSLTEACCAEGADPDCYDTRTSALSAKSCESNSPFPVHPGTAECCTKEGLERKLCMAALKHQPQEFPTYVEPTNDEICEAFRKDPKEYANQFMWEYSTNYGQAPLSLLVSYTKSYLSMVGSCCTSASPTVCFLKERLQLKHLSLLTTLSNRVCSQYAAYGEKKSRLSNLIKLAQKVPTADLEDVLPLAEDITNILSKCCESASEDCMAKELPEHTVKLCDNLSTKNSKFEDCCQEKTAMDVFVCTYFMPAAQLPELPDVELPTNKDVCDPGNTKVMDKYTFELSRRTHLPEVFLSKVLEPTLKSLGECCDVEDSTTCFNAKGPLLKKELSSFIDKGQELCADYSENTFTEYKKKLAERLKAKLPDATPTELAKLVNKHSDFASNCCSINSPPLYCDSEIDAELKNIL
As to the kind of experiment: Affinity for human DBP: competition with [3H]1α,25(OH)2D3. The note with it: percentage activity (at 50% of the dose response) in comparison with 1α,25(OH)2D3 (=100%). The format is binding. The procedure:
Phase separation was then obtained by the addition of 0.5 ml of cold dextran-coated charcoal.

Data set [3] deals with MCF-7 cells. As to the kind of experiment: MCF-7 cell proliferation ([3H]thymidine incorporation). The note with it: for IN VITRO STUDIES MCF-7: antiproliferative action, percentage activity vs 1α,25(OH)2D3 (=100%); for Antiproliferative activity on MCF-7 cells: percentage activity (at 50% of the dose response) vs 1α,25(OH)2D3 (=100%). In kind it is cell-based. The procedure:
To evaluate the effect of on cell proliferation, malignant MCF-7 cells were cultured in DMEM/nut. mix. […] Cultures were maintained at 37° C. in a humidified atmosphere of 5% CO2 in air. MCF-7 cells were seeded at 5×10^3 cells/well in the above described medium in 96-well microtiter plates in a final volume of 0.2 ml per well. Triplicate cultures were performed. […] Then, 1 μCi [^3H]thymidine was added to each well and cells were harvested after 4 h incubation with a Packard harvester and measured by the Packard Topcount System (Packard, Meriden, USA).
(In general: Incorporation of labelled thymidine or its analogues reports DNA synthesis.)

For data set [4] the following is noted: for Femur calcium: NMRI mice; for IN VIVO STUDIES Osteocalcin serum: mice, daily intraperitoneal injection 7 consecutive days, percentage activity vs 1α,25(OH)2D3 (=100%); for IN VIVO STUDIES Calcium serum / IN VIVO STUDIES Calcium urine / Serum calcium in mice: mouse, ip, in vivo.
Description: Eight weeks old, male NMRI mice were obtained from the Proefdierencentrum of Leuven (Belgium) and fed a vitamin D-replete diet (0.2% calcium, 1% phosphate, 2000 U vitamin D/kg; Hope Farms, Woerden, The Netherlands). […] The control group was injected with vehicle (arachis oil). The average weight of each group of 6 mice was determined at the beginning and at the end of the experiment. The following parameters were evaluated: serum calcium, serum osteocalcin, femur calcium and urinary calcium. Serum and urinary calcium were measured by a microcolorimetric assay (Sigma, St. Louis, Mo.). Femurs were removed and femur calcium content was measured in HCl-dissolved bone ash (obtained by heating for 24 h in an oven at 100° C.), using the same technique as for serum and urinary calcium.
Data set [5] in a line: Primary prevention of osteoporosis in ovariectomized mice. In kind it is in vivo, C3H female mice. As for the experimental part:
12 week old C3H female mice are subjected to bilateral ovariectomy or sham surgery. The animals are treated with the analog or vehicle by oral gavage or intraperitoneally. Dosing is started 3 days after sugery and continued for 8-9 weeks.
(§1) Before the first treatment in vivo measurements are performed to determine bone mineral density (BMD), bone mineral content (BMC) of total body and spine by dual-energy X-ray absorptiometry (DXA). Urine and serum is collected to measure calcium levels together with collagen cross-links in urine and osteocalcin in serum. The animals are weighed regularly during the experimental period. After 4 weeks treatment urine and serum is again collected and biochemical parameters are determined. At the end of the experiment (8-9 weeks) urine is collected and DXA measurement is performed in vivo to determine BMD and BMC. After killing the animals tibiae and femora are dissected The following biochemical parameters are investigated: serum calcium, serum osteocalcin, urine calcium, urine collagen cross-links, femur calcium.
(§2) Tibiae are used for histomorphometric analysis and femurs for measurement of cortical and trabecular volumetric density and geometry by peripheral quantitative computed tomography (pQCT) ex vivo.

Data set [6] is described as follows: Secondary prevention or treatment of osteoporosis in ovariectomized mice. In kind it is in vivo, C3H female mice. As for the experimental part: 12 week old C3H female mice are subjected to bilateral ovariectomy or sham surgery. The animals are treated with the analog or vehicle by oral gavage or intraperitoneally. Dosing is started 4 weeks after sugery and continued for 4-10 weeks.
as §1, with “dual-energy,” for “dual-energy”, “determined and” for “determined. At the end of the experiment (8-9 weeks)”
as §2

Data set [7] concerns the target T2, vitamin D receptor (Sus scrofa, UniProt A3RGC1).
T2 sequence (A3RGC1 1-427): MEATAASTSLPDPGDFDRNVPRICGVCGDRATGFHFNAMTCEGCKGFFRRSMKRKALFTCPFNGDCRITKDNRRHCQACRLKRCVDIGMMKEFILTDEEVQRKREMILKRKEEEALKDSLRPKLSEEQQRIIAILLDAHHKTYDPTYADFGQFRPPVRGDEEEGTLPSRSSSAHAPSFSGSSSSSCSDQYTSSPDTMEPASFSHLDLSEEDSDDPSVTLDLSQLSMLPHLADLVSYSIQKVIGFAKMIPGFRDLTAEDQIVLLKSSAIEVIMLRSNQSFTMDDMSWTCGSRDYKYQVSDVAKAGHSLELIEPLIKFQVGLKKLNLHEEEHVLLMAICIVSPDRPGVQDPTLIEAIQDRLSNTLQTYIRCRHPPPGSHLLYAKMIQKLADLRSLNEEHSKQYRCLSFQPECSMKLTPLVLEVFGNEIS
The note with it: percentage activity (at 50% of the dose response) in comparison with 1α,25(OH)2D3 (=100%).
Description: The incubation was performed at 4° C. for 20 h and phase separation was obtained by addition of dextran-coated charcoal.

For data set [8] the following is noted: background, well established; cited from earlier work.
For data set [9] the following is noted: known superagonists; data published in J Bone Mineral Res 15 (2): 237-252 (2000); cited from earlier work.
In data set [10] the test system is MCF-7 cells. The following applies: known superagonists; data published in J Bone Mineral Res 15 (2): 237-252 (2000); cited from earlier work.

With “14-epi-2α-methyl-19-nor-23-yn-1α,25-dihydroxyvitamin D3 [Compound 108]”, in data set [1] (HL 60 cells), the “prodifferentiating activity, times that of 1α,25(OH)2D3” value was found to be 40 times and the “prodifferentiating effect (in words)” value was “very potent”. Moreover, the “IN VITRO STUDIES HL 60” value in data set [1] was found to be 4000%. Further, the “AFFINITY STUDIES DBP” value in data set [2] came to 0.3%. For the same molecule, in [3] (MCF-7 cells), the “antiproliferative activity, times that of 1α,25(OH)2D3” value came out at 120 times and the “antiproliferative effect (in words)” value is on record as “very potent”. Besides, in [3], the “IN VITRO STUDIES MCF-7” value was 12000% and the “Antiproliferative activity on MCF-7 cells” value is reported as 12000%. In addition, in data set [4] (1 μg/kg/d, 7 consecutive days), the “increase of calcium levels in bone compared to 0.1 μg/kg/d 1,25(OH)2D3” value is listed as 18%, the “increase of calcium levels in bone compared to 0.2 μg/kg/d 1,25(OH)2D3” value was determined as 14%, the “increase of calcium levels in bone compared to 0.4 μg/kg/d 1,25(OH)2D3” value stood at 20% and the “increase of calcium levels in bone compared to vehicle treated mice” value is given as 10%. Moreover, the Femur calcium in data set [4] (0.4 μg/kg/d intraperitoneally, 7 consecutive days) is 9.57 ± 0.26 mg. Moreover, the Femur calcium in data set [4] (1 μg/kg/d intraperitoneally, 7 consecutive days) is given as 10.52 ± 0.43*^,$ mg. In data set [4], the “IN VIVO STUDIES Osteocalcin serum” value is given as 4%, the “IN VIVO STUDIES Calcium serum” value came to 2%, the “IN VIVO STUDIES Calcium urine” value was found to be 4% and the “Serum calcium in mice” value is listed as 2%. Moreover, the “serum calcium or urinary calcium levels” value in data set [5] (after at least four weeks, more particularly 8 weeks of treatment) is recorded as “not significantly increased”. Besides, the “BMD, BMC and femur calcium” value in data set [5] (ovariectomized mice, dosing from 3 days after surgery for 8-9 weeks) is given as “increase”. Further, in data set [6] (after four weeks, more particularly 8 weeks of treatment), the “serum calcium or urinary calcium levels” value is recorded as “not significantly increased”. Besides, the “BMD, BMC and femur calcium concentration” value in data set [6] (ovariectomized mice, dosing from 4 weeks after surgery, compared to levels prior to treatment) is recorded as “increase”. Besides, in data set [7], the “AFFINITY STUDIES VDR” value is 80%.

In the case of `C[C@H](CCCC(C)(C)O)[C@H]1CC[C@H]2/C(=C/C=C3C[C@@H](O)C[C@H](O)C3)CCC[C@]12C` [19-nor-1α,25-dihydroxyvitamin D3], the “calcemic effect, % of that of 1α,25(OH)2D3” value in data set [8] is 10%.

With `CCC1C(O)CC(=CC=C2CCCC3(C)C2CCC3C(C)CC#CC(C)(C)O)CC1O` (stereo not drawn) [Compound 115, 2β-ethyl-14-epi-19-nor-23-yne-1α,25(OH)2D3], in data set [1], the “IN VITRO STUDIES HL 60” value was 80%. The “AFFINITY STUDIES DBP” value in data set [2] is reported as 0.2%. In addition, in data set [3], the “IN VITRO STUDIES MCF-7” value is on record as 600% and the “Antiproliferative activity on MCF-7 cells” value turned out to be 600%. In [4], the “IN VIVO STUDIES Osteocalcin serum” value was determined as 0.1%, the “IN VIVO STUDIES Calcium serum” value is on record as <<0.1%, the “IN VIVO STUDIES Calcium urine” value is <0.1% and the “Serum calcium in mice” value was <<0.1%. Besides, in data set [7], the “AFFINITY STUDIES VDR” value turned out to be 9%.

Regarding `CCC1C(O)CC(=CC=C2CCCC3(C)C2CCC3C(C)CC#CC(C)(C)O)CC1O` (stereo not drawn) [Compound 116, 2α-ethyl-14-epi-19-nor-23-yne-1α,25(OH)2D3], the “prodifferentiating effect (in words)” value in data set [1] (HL 60 cells) is reported as “very potent”. Further, the “IN VITRO STUDIES HL 60” value in data set [1] is reported as 550%. Further, in [2], the “AFFINITY STUDIES DBP” value is 0.1%. Besides, the “antiproliferative effect (in words)” value in data set [3] (MCF-7 cells) was “very potent”. Also, in [3], the “IN VITRO STUDIES MCF-7” value stood at 3000% and the “Antiproliferative activity on MCF-7 cells” value is 3000%. In data set [4], the “IN VIVO STUDIES Osteocalcin serum” value was determined as 0.2%, the “IN VIVO STUDIES Calcium serum” value is 0.2% and the “Serum calcium in mice” value is listed as 0.2%. Moreover, the “AFFINITY STUDIES VDR” value in data set [7] was found to be 65%.

Turning to `CC(CC#CC(C)(C)O)C1CCC2C(=CC=C3CC(O)C(C)C(O)C3)CCCC21C` (stereo not drawn) [Compound 117, 3,14-bis-epi-2α-methyl-19-nor-23-yn-1α,25-dihydroxyvitamin-D3], the “prodifferentiating effect (in words)” value in [1] (HL 60 cells) is reported as “very potent”. Also, in data set [1], the “IN VITRO STUDIES HL 60” value turned out to be 400%. The “AFFINITY STUDIES DBP” value in [2] stood at 0%. In addition, the “antiproliferative effect (in words)” value in data set [3] (MCF-7 cells) is “very potent”. For the same molecule, in data set [4], the “IN VIVO STUDIES Calcium serum” value is reported as <0.25% and the “IN VIVO STUDIES Calcium urine” value was <0.25%. In data set [7], the “AFFINITY STUDIES VDR” value came out at 40%.

In the case of `C=C1/C(=C\C=C2/CCC[C@]3(C)[C@@H]([C@H](C)/C=C/[C@@H](O)C4CC4)CC[C@@H]23)C[C@@H](O)C[C@@H]1O` [MC 903], in [9], the “Serum calcium in mice” value is 1%. Besides, the “Antiproliferative activity on MCF-7 cells” value in [10] is 100-200%.

In the case of `C=C1/C(=C\C=C2/CCC[C@]3(C)[C@@H]([C@H](C)OCCC(C)(C)O)CC[C@@H]23)C[C@@H](O)C[C@@H]1O` [OCT], the “Serum calcium in mice” value in [9] is recorded as 0.3%. For the same molecule, the “Antiproliferative activity on MCF-7 cells” value in data set [10] is recorded as 100-150%.
